Source: PMC12077799, “Fragment-based drug discovery for transthyretin kinetic stabilisers using a novel capillary zone electrophoresis method” (PLOS One, 2025)
Where two headings read alike, the source gives them in different places.

Assays:
[1] = target: T1, Human transthyretin (TTR) thyroxine binding sites (Homo sapiens, UniProt P02766); test: TTR CZE Free Probe Peak Height Restoration (FPPHR) assay, 8-ANS displacement
T1 construct: purchased SCIPAC (Sittingbourne, Kent, UK) P171-1
Description: CZE assays development and fragment screening were performed on a Beckman P/ACE MDQ capillary electrophoresis system (Beckman Coulter Inc., Brea, CA) operated by 32 Karat™ software. All capillaries (Polymicro Technologies, Phoenix, AZ) used were internally coated with polyvinyl alcohol and of around 30 cm in length, 75 microns in internal diameter. Capillary temperature was maintained at 20 °C by recirculating fluorinated fluid coolant during electrophoresis. Sample trays and buffer trays temperature were maintained at 4°C and ambient respectively. For every electrophoretic run, the capillary was pressure rinsed and prefilled with electrophoresis buffer also known as background electrolyte (termed as Running Buffer hereafter) before injection. After each electrophoretic run, the capillary was rinsed with Running Buffer and H2O by pressure (20 psi for 1 minute). Three Running Buffers (RB), A: 20 mM Tris pH 7.5, 1 mM KCl, 1.62 mM NaCl; B: 20 mM HEPES pH 7.0, 2 mM CaCl2 and C: 20 mM HEPES pH 7.0, 2 mM CaCl2, 1% DMSO were used. All CE traces were analysed by 32Karat™ Software with a built-in automatic peak integration algorithm.
Control 1 Inject Buffer (IB) containing 30 μM 8-ANS was prepared by mixing 1 μL of 3 mM 8-ANS DMSO stock with 99 μL of Running Buffer B in a 0.2 mL PCR tube. Control 2 Inject Buffer was prepared by mixing 1μL of 3 mM 8-ANS DMSO stock with 20 μL of 100 μM tetrameric TTR stock in Running Buffer B and 79 μL of Running Buffer B. The final concentrations (f/c) were 8-ANS 30 μM, TTR 20 μM and 1% DMSO v/v.
The maximum Free Probe Peak Height (Control 1 Peak Height) was determined by Outlet Injection (see Fig 1) of Control 1 with an injection pressure of 0.5 psi for 5 seconds (equivalent to ≈ 20–30 nL). An identical injection of Control 2 provides the minimum Free Probe Peak Height (Control 2 Peak Height) enabling calculation of % of bound and unbound, i.e., free 8-ANS. To determine the 8-ANS peak height in Control 1 and Control 2, the capillary was prefilled with Buffer C and electrophoresis carried out at 10 kV (Normal Polarity, Fig 1) with UV monitoring at 230 nm. For displacement analysis, ligand DMSO stock was diluted in Buffer B and used to fill the capillary as the Running Buffer. Electrophoresis commenced after injection of Control 2, thus the injected 8-ANS-TTR complex migrates inside a capillary filled with the test ligand. The observed 8-ANS peak height is defined as Sample Peak Height and the displaced 8-ANS can be calculated as:
\% of Free Probe Peak Height Restoration= Sample Peak Height−Control 2 Peak Height/Control 1 Peak Height−Control 2 Peak Height

[2] = target: T2, Human transthyretin (TTR) (Homo sapiens, UniProt P02766); test: Co-crystallisation of TTR-ligand complex, X-ray hit confirmation; assay type: binding; details: for Confirmed by X-ray: fragment seen in ligand-omitted difference density at >= 2σ in one or both binding sites, full or partial density
T2 construct: purchased SCIPAC (Sittingbourne, Kent, UK) P171-1
Description: Crystals were grown by vapor diffusion using a published crystallisation cocktail (100 mM HEPES pH 7.5, 200 mM CaCl2, 28% v/v PEG400) at 21 °C [29]. The hanging drop contained 1 μL of crystallisation cocktail, 1 μL of diluted ligand and 1 μL of TTR protein solution (85 μM). […] Crystals were harvested and flash cooled in a N2 cryostream or dipped into liquid ethane without cryoprotectant. Data was collected at Diamond Light Source (Oxon, UK) beamline I24, I04 or I04-1 (Pilatus 6M or ADSC Q315) or the European Synchrotron Radiation Facility (ESRF, Grenoble, France) beamline ID29 (Pilatus 6M-F) or in-house (Bruker X8 Diffractometer with APEXII CCD detector). Crystal unit cell was initially indexed by software MOSFLM [30] and LABELIT [31] within the EDNA [32] automatic data processing workflow. Diffraction image integration was performed by XDS [33] and reflection intensities were scaled by SCALA [34] or by PROTEUM2 if collected in-house. Phases were obtained by molecular replacement method using PHASER [35], 1DVQ from the Protein Data Bank (PDB) was used as the search model. Atomic positions of the initial model were refined by REFMAC5 [36]. Model building and ligand fitting was completed using COOT [37]. Model graphics were generated using CCP4MG [38]. Crystallographic statistics of all structures can be found in S4 Table.

[3] = target: T3, TTR in undiluted normal human reference plasma (Homo sapiens, UniProt P02766); test: 125I-T4 displacement assay in neat normal human plasma; assay type: binding; details: for IC50: neat normal human plasma, 4-parameter logistic fit
T3 construct: The TTR in plasma was immunoprecipitated by sheep anti-human prealbumin polyclonal antibody; tissue Precision Biologic Inc., Nova Scotia, Canada
Source text: The assay was adapted from one described previously. Briefly, test ligand and ^125I-T4 (Perkin Elmer Inc., Waltham, MA) were mixed with undiluted normal human reference plasma (Precision Biologic Inc., Nova Scotia, Canada). The TTR in plasma was immunoprecipitated by sheep anti-human prealbumin polyclonal antibody (The Binding Site Group Ltd., Birmingham, UK). The immunoprecipitate was washed with buffer and their radioactivity measured with a 2470 WIZARD automatic gamma counter (Perkin Elmer Inc., Waltham, MA). […] Percentage of total radioligand binding for samples of different ligand concentration was then calculated as follows: […]
To calculate IC50 values, percentage of total radioligand binding at different concentration points were entered in SigmaPlot™ 11.0. Titration curves were done in triplicates with a minimum of 5 data points fitted by 4-Parameter Logistic Function.

TTR = target: T4, TTR (Homo sapiens, UniProt P02766); test: Isothermal titration calorimetry (ITC); assay type: binding; details: for Kd: 25 °C, PBS pH 7.8, 3% DMSO
T4 construct: purchased SCIPAC (Sittingbourne, Kent, UK) P171-1
Description: All ITC experiments were conducted on an iTC200 calorimeter (GE Healthcare), and the settings were 25 °C, stir at 1000 RPM, 1–2 μL injection spaced with 100–150 seconds, reference power: 6 μcal/sec. Isotherms were fitted using ORIGIN 7 software (OriginLab, MA, USA). To prepare TTR ITC protein solution (5 mL), purified and freeze-dried human TTR was weighted and dissolved in 310 μL of pure water. The reconstituted protein solution was then desalted by spin column (Bio-Rad, Bio-Gel P6) and the eluted volume was transferred to a 15mL falcon tube. The protein solution was further diluted with 10x Phosphate Buffered Saline (PBS, 500 μL), DMSO (150 μL) and water, (f/c: 4.3 mM Na2HPO4, 137 mM NaCl, 2.7 mM KCl, 1.47 mM KH2PO4, 3% DMSO v/v, TTR 19.35–25 μM, pH 7.8). UV A260/280 was measured to obtain the actual protein concentration using a calculated extinction coefficient of 18450 M^-1 cm^-1. To prepare ligand ITC solution (1 mL), 30 μL of ligand stock in DMSO was diluted with 10x PBS (100 μL) and water (f/c: 4.3 mM Na2HPO4, 137 mM NaCl, 2.7 mM KCl, 1.47 mM KH2PO4, 3% DMSO v/v, Ligand 280–600 μM, pH 7.8).

[4] = target: TTR thyroxine binding sites; details: cited from earlier work
[5] = target: T1, Human transthyretin (TTR) thyroxine binding sites; test: TTR CZE Free Probe Peak Height Restoration (FPPHR) assay, 8-ANS displacement; details: 30 μM 8-ANS with 20 μM TTR
[6] = N = number of non-hydrogen atoms

Row | SMILES | FPPHR % at 300 μM ± SD (N = 3) ([1]; fragment 300 μM in Running Buffer, injected 30 μM 8-ANS / 20 μM TTR, hit cut-off 10%) | Confirmed by X-ray [2] | ligand electron density, binding sites occupied in co-crystal structure ([2]; in words) | 125I-T4 displacement at maximal concentration ([3]; 14.3mM, no plateau reached) | IC50 [3] [µM] | Kd (TTR; read-out: ITC Kd1 ± SD (N = 3)) [µM] | Kd (TTR; read-out: ITC Kd2 ± SD (N = 3)) [µM] | Kd1 LE (Ligand Efficiency, ΔG/N) (TTR; [6]) [kcal/mol] | Kd2 LE (Ligand Efficiency, ΔG/N) (TTR; [6]) [kcal/mol] | FPPHR % tested at 10 µM ([1]; compound 10 µM in Running Buffer, 10% minimum for a binder) [% tested at 10 µM] | FPPHR % at 50 μM ([1]; compound 50 μM in Running Buffer, 10% minimum for a binder) [%] | IC50 ([3]; read-out: Mean 125I-T4 IC50 ± SD (N = 3)) [µM] | Kd ([4]; read-out: Kd1, 8-ANS at TTR thyroxine binding sites) [µM] | Kd ([4]; read-out: Kd2, 8-ANS at TTR thyroxine binding sites) [µM] | Kd ([4]; read-out: previously reported Kd values) [µM] | % of 8-ANS bound to TTR, deduced from free 8-ANS peak areas [5] [%] | % of 8-ANS bound to TTR, deduced from free 8-ANS peak heights ([1]; 30 μM 8-ANS with 20 μM TTR)
1 | NS(=O)(=O)c1cc(Cl)cc(Cl)c1 [SFL000006, 3,5-Dichlorobenzenesulphonamide] | 12.18 ± 6.63 (N = 4) % | Yes 1 Site, Partial, 9H7A | only observed in one site | ≈ 60% | 8880 ± 3670 | – | – | – | – | – | – | – | – | – | – | – | –
2 | Cc1n[nH]c(C)c1-c1cccc2cccnc12 [Compound 94320297] | – | Yes 9H7K | – | – | – | 0.064 | 0.91 | 0.58 | 0.48 | 33.32 | 59.77 | 18.9 ± 6.14 | – | – | – | – | –
3 | O=S(=O)(O)c1cccc2cccc(Nc3ccccc3)c12 [Compound 8-ANS, 8-Anilino-1-Naphthalenesulfonic acid] | – | – | – | – | – | – | – | – | – | – | – | – | 1.05 | 4.79 | 1 to 5 | ~35 | around 60%
